One data set addresses hTdp2 (Rec) (Homo sapiens (Human), UniProt O95551). Description: SUMO hTDP2cat fluorescence-based biochemical assay.
Conditions: not given
As for the experimental part:
Biochemical Potency. The enzymatic activity of TDP2 was measured with a SUMO hTDP2cat fluorescence-based biochemical assay. […] After a pre-incubation period of 10 minutes, 5 μL of substrate 5′-(6-FAM-NHS)(5′-tyrosine)GATCT(3′-BHQ-1)-3′ (1 μM, final concentration of 0.25 μM) was added, and the reaction was allowed to proceed at 25° C. for 60 minutes. The fluorescence was measured, and the data was processed as described previously for 14M_zTDP2.
Chain of hTdp2 (Rec) (O95551 113-362): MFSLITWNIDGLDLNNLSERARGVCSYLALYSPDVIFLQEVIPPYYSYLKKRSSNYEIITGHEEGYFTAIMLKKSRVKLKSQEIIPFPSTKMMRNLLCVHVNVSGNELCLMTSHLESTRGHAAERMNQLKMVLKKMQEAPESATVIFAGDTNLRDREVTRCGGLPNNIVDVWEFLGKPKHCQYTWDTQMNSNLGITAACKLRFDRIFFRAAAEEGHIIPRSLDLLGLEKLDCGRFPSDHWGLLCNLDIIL
On to `N#Cc1ccc2cc3c(=O)[nH]c(=O)nc-3n(-c3ccc(Oc4ccc(NC(=O)Oc5ccccc5)cc4)cc3)c2c1` [Example 118], for which the IC50 worked out at 0.795 ± 0.04 µM.

In turn, `N#Cc1ccc2cc3c(=O)n(-c4cccc(NC(=O)Oc5ccccc5)c4)c(=O)nc-3n(-c3ccc(O)cc3)c2c1` [Example 132, Phenyl-(3-(8-cyano-10-(4-hydroxyphenyl)-2,4-dioxo-4,10-dihydropyrimido[4,5-b]quinolin-3(2H)-yl)phenyl)carbamate] had an IC50 of 0.119 ± 0.004 µM. On the same count and under the same terms, to `N#Cc1ccc2cc3c(=O)n(-c4ccc(NC(=O)Oc5ccccc5)cc4)c(=O)nc-3n(-c3ccc(O)cc3)c2c1` [Example 133, Phenyl-(4-(8-cyano-10-(4-hydroxyphenyl)-2,4-dioxo-4,10-dihydropyrimido[4,5-b]quinolin-3(2H)-yl)phenyl)carbamate] belongs 0.059 ± 0.004 µM; to `N#Cc1ccc2cc3c(=O)n(-c4cccc(NP(=O)(Oc5ccccc5)Oc5ccccc5)c4)c(=O)nc-3n(-c3ccc(O)cc3)c2c1` [Example 134, Diphenyl-(3-(8-cyano-10-(4-hydroxyphenyl)-2,4-dioxo-4,10-dihydropyrimido[4,5-b]quinolin-3(2H)-yl)phenyl)phosphoramidate], 0.277 ± 0.011 µM.

As for `N#Cc1ccc2cc3c(=O)n(-c4ccc(NP(=O)(Oc5ccccc5)Oc5ccccc5)cc4)c(=O)nc-3n(-c3ccc(O)cc3)c2c1` [Example 135, Diphenyl-(4-(8-cyano-10-(4-hydroxyphenyl)-2,4-dioxo-4,10-dihydropyrimido[4,5-b]quinolin-3(2H)-yl)phenyl)phosphoramidate], half-maximal inhibition (IC50) was put at 0.185 ± 0.009 µM. Still for that read-out and setting: the figure for `N#Cc1ccc2cc3c(=O)n(-c4ccc(CNP(=O)(Oc5ccccc5)Oc5ccccc5)cc4)c(=O)nc-3n(-c3ccc(O)cc3)c2c1` [Example 136, Diphenyl-(4-(8-cyano-10-(4-hydroxyphenyl)-2,4-dioxo-4,10-dihydropyrimido[4,5-b]quinolin-3(2H)-yl)benzyl)phosphoramidate] is 0.119 ± 0.003 µM.

Staying with this data set, now noted: SUMO hTDP2cat 3.13 pM, substrate 0.25 μM, 25° C., 60 minutes; read-out: hTdp2 (Rec) IC50.
With `CC1(C)OB(c2cccc(Oc3ccc(-n4c5nc(=O)[nH]c(=O)c-5cc5ccc(C#N)cc54)cc3)c2)OC1(C)C` [Example 119, 2,4-Dioxo-10-(4-(3-(4,4,5,5-tetramethyl-1,3,2-dioxaborolan-2-yl)phenoxy)phenyl)-2,3,4,10-tetrahydropyrimido[4,5-b]quinoline-8-carbonitrile], the half-inhibitory concentration (IC50) came to 0.00828 ± 0.00044 µM.

Consider `N#Cc1ccc2cc3c(=O)[nH]c(=O)nc-3n(-c3ccc(Oc4cccc(B(O)O)c4)cc3)c2c1` [Example 120, (3-(4-(8-Cyano-2,4-dioxo-3,4-dihydropyrimido[4,5-b]quinolin-10(2H)-yl)phenoxy)phenyl) boronic acid], for which the IC50 came out at 0.00501 ± 0.00069 µM. The same measure, in the same setting: the figure for `CC1(C)OB(c2cccc(COc3ccc(-n4c5nc(=O)[nH]c(=O)c-5cc5ccc(C#N)cc54)cc3)c2)OC1(C)C` [Example 121, 2,4-Dioxo-10-(4-((3-(4,4,5,5-tetramethyl-1,3,2-dioxaborolan-2-yl)benzyl)oxy)phenyl)-2,3,4,10-tetrahydropyrimido[4,5-b]quinoline-8-carbonitrile] is 0.047 ± 0.004 µM; for `CC1(C)OB(c2ccc(COc3ccc(-n4c5nc(=O)[nH]c(=O)c-5cc5ccc(C#N)cc54)cc3)cc2)OC1(C)C` [Example 122, 2,4-Dioxo-10-(4-((4-(4,4,5,5-tetramethyl-1,3,2-dioxaborolan-2-yl)benzyl)oxy)phenyl)-2,3,41,10-tetrahydropyrimido[4,5-b]quinoline-8-carbonitrile] it is 0.359 ± 0.032 µM.

As to `N#Cc1ccc2cc3c(=O)[nH]c(=O)nc-3n(-c3ccc(OCc4cccc(B(O)O)c4)cc3)c2c1` [Example 123, (3-((4-(8-Cyano-2,4-dioxo-3,4-dihydropyrimido [4,5-b]quinolin-10(2H)-yl)phenoxy)methyl)phenyl) boronic acid], the IC50 came to 0.039 ± 0.003 µM. For the compound `N#Cc1ccc2cc3c(=O)[nH]c(=O)nc-3n(-c3ccc(OCc4ccc(B(O)O)cc4)cc3)c2c1` [Example 124, (4-((4-(8-Cyano-2,4-dioxo-3,4-dihydropyrimido [4,5-b]quinolin-10(2H)-yl)phenoxy)methyl)phenyl) boronic acid], the IC50 stood at 0.239 ± 0.018 µM. The same measure, in the same setting: to `O=c1nc2n(-c3ccc(Oc4cccc(B(O)O)c4)cc3)c3cc(Cl)ccc3cc-2c(=O)[nH]1` [Example 143, (3-(4-(8-Chloro-2,4-dioxo-3,4-dihydropyrimido[4,5-b]quinolin-10(2H)yl)phenoxy)phenyl) boronic acid] belongs 0.00385 ± 0.00037 µM.

The test system of another data set is DT40 lymphoma cells.
Assay: not given
The conditions noted are these: in cancer cells, at 50 μM of compound 5-I; sensitizing effect; cited from earlier work.
With `N#Cc1ccc2cc3c(=O)[nH]c(=O)nc-3n(-c3cccc(-c4nnn[nH]4)c3)c2c1` [compound 5-I], the “maximal efficacy, cell viability” value is listed as “around 10%”.

One may read the IC50 as the point on the concentration scale where inhibition reaches its midpoint.

Values taken from patent US10617706B2, “Compounds for cancer chemotherapeutic sensitization” (Regents of the University of Minnesota, priority 2018, dated 2020).
